Laboratory results from patent publication US11472766B2, “Lipid nanoparticle composition” (Suzhou Abogen Biosciences Co., Ltd., priority 2020, dated 2022).

What was measured:
[1] = Lipid nanoparticle size by dynamic light scattering (Malvern Zetasizer Nano ZS); assay type: physicochemical; details: LNP: cationic lipid/DSPC/cholesterol/PEG-lipid 50:10:38.5:1.5, hEPO mRNA; Table 3
Protocol: (§1) Briefly, a cationic lipid provided herein, DSPC, cholesterol, and PEG-lipid were solubilized in ethanol at a molar ratio of 50:10:38.5:1.5, and mRNA were diluted in 10 to 50 mM citrate buffer, pH=4. The LNPs were prepared at a total lipid to mRNA weight ratio of approximately 10:1 to 30:1 by mixing the ethanolic lipid solution with the aqueous mRNA solution at a volume ratio of 1:3 using a microfluidic apparatus, total flow rate ranging from 9-30 mL/min. Ethanol were thereby removed and replaced by DPBS using dialysis. Finally, the lipid nanoparticles were filtered through a 0.2 μm sterile filter.
(§2) Lipid nanoparticle size were determined by dynamic light scattering using a Malvern Zetasizer Nano ZS (Malvern UK) using a 173° backscatter detection mode. The encapsulation efficiency of lipid nanoparticles were determined using a Quant-it Ribogreen RNA quantification assay kit (Thermo Fisher Scientific, UK) according to the manufacturer's instructions.

[2] = Encapsulation efficiency of lipid nanoparticles (Quant-it Ribogreen RNA quantification assay); assay type: physicochemical; details: LNP encapsulating hEPO mRNA; Table 3
Protocol: as §1, §2

[3] = system: human erythropoietin (hEPO) mRNA; test: Animal study: hEPO expression after tail vein injection of LNPs encapsulating hEPO mRNA (serum ELISA); assay type: in vivo; details: hEPO level, female ICR mice, 0.5 mg/kg, 6 hours post administration, class symbols, Table 3
Protocol: Lipid nanoparticles comprising compounds 1-10 encapsulating human erythropoietin (hEPO) mRNA were systemically administered to 6-8 week old female ICR mice (Xipuer-Bikai, Shanghai) at 0.5 mg/kg dose by tail vein injection and mice blood were sampled at specific time points (e.g., 6 hours) post administration. In addition to the aforementioned tested groups, lipid nanoparticles comprising dilinoleylmethyl-4-dimethylaminobutyrate (DLin-MC3-DMA, usually abbreviated to MC3) encapsulating hEPO mRNA were similarly administered at the same dose to age and gender comparative groups of mice as a positive control.
Mice were euthanized by CO2 overdoses after the last sampling time point. Serum were separated from total blood by centrifugation at 5000 g for 10 minutes at 4° C., snap-frozen and stored at −80° C. for analysis. ELSA assay were carried out using a commercial kit (DEP00, R&D systems) according to manufacturer's instructions.
Characteristics of tested lipid nanoparticles, including hEPO expression levels (μg/ml) measured from the tested group are listed the tables below and plotted in FIG. 2.

Row | Compound | polydispersity [1] | size nm [1] [nm] | Encapsulation Efficiency [2] [%] | Expression at 6 h (μg/ml) [3]
1 | CCCCCCCCC(CCCCCC)COC(=O)CCCCCC(CCCCCC(=O)OCC(CCCCCC)CCCCCCCC)CN(CCO)C1CCCCCCC1 (stereo not shown) [Compound 17] | 0.209 | 57.6 | 18.18 | D (<0.1)
2 | CCCCCCCCC(CCCCCC)COC(=O)CCCCCN(CCCCCC(=O)OCC(CCCCCC)CCCCCCCC)CCN(CCO)C1CCC(F)(F)CC1 (stereo not shown) [Compound 23] | 0.14 | 60.64 | 93.9 | B (≥1 and <2)
3 | CCCCCCCCC(CCCCCC)CC(=O)COCCCCN(CCCCCOC(=O)CC(CCCCCC)CCCCCCCC)CCN(CCO)C1CCCCC1 (stereo not shown) [Compound 26] | 0.125 | 55.51 | 96.7 | C (≥0.1 and <1)
4 | CCCCCCCCC(CCCCCC)COC(=O)CCCCCN(CCCCCC(=O)OCC(CCCCCC)CCCCCCCC)CCN(CCCCCCO)C1CCC1 (stereo not shown) [Compound 30] | 0.071 | 80.46 | 95.9 | B (≥1 and <2)
5 | CCCCCCCCC(CCCCCC)C(CCC)OC(=O)CCCCCN(CCCCCC(=O)OC(CCC)C(CCCCCC)CCCCCCCC)CCN(CCO)C1CCC1 (stereo not shown) [Compound 40] | 0.081 | 66.39 | 99.2 | C (≥0.1 and <1)
6 | CCCCCCCCCCC(CCCCCC)COC(=O)CCCCCCN(CCCCCCC(=O)OCC(CCCCCC)CCCCCCCCCC)CCN(CCO)C1CCC1 (stereo not shown) [Compound 43] | 0.068 | 74.8 | 97.3 | B (≥1 and <2)
7 | CCCCCCCCC(CCCCCC)C(=O)OCCCCCCN(CCCCCCOC(=O)C(CCCCCC)CCCCCCCC)CCN(CCO)C1CCC1 (stereo not shown) [Compound 45] | 0.032 | 71.47 | 96.6 | A (≥2)
8 | CCCCCCCCCCCCC(CCCCCC)COC(=O)CCCN(CCCC(=O)OCC(CCCCCC)CCCCCCCCCCCC)CCN(CCO)C1CCC1 (stereo not shown) [Compound 47] | 0.103 | 62.38 | 95.3 | C (≥0.1 and <1)
9 | CCCCCCCCCCC(CCCCCCCCCC)COC(=O)CCCCCN(CCCCCC(=O)OCC(CCCCCCCCCC)CCCCCCCCCC)CCN(CCO)C1CCC1 [Compound 52] | 0.054 | 69.18 | 95.70 | A (≥2)
10 | CCCCCCCCC(CCCCCC)COC(=O)CCCCCN(CCCCCC(=O)OCC(CCCCCC)CCCCCCCC)CCN(C)C1CCC(O)CC1 (stereo not shown) [Compound 54] | 0.051 | 102.7 | 97.2 | D (<0.1)
11 | CCCCCCCCC(CCCCCC)COC(=O)CCCCCN(CCCCCC(=O)OCC(CCCCCC)CCCCCCCC)CCN(CC)C1CCC(O)CC1 (stereo not shown) [Compound 55] | 0.109 | 95.51 | 96.7 | C (≥0.1 and <1)
12 | CCCCCCCCC(CCCCCC)COC(=O)CCCCCN(CCCCCC(=O)OCC(CCCCCC)CCCCCCCC)CCN(CCCCC)C1CCC(O)CC1 (stereo not shown) [Compound 61] | 0.087 | 65.04 | 83.4 | A (≥2)
13 | CCCCCCCCC(CCCCCC)COC(=O)CCCCCN(CCCCCC(=O)OCC(CCCCCC)CCCCCCCC)CCN(CCOC(C)=O)C1CCC1 (stereo not shown) [Compound 64] | 0.181 | 84.93 | 84.1 | D (<0.1)
14 | CCCCCCCCC(CCCCCCCC)COC(=O)CCCCCN(CCCCCC(=O)OCC(CCCCCCCC)CCCCCCCC)CCN(CCC)C1CCCCC1O (stereo not shown) [Compound 69] | 0.06 | 58.74 | 78.3 | D (<0.1)
15 | CCCCCCCCC(CCCCCCCC)COC(=O)CCCCCN(CCCCCC(=O)OCC(CCCCCCCC)CCCCCCCC)CCN(C)C1CCC(O)CC1 (stereo not shown) [Compound 73] | 0.027 | 78.99 | 93.1 | C (≥0.1 and <1)
16 | CCCCCCCCC(CCCCCCCC)COC(=O)CCCCCN(CCCCCC(=O)OCC(CCCCCCCC)CCCCCCCC)CCN(CCCCCC)C1CCC(O)CC1 (stereo not shown) [Compound 75] | 0.032 | 62.36 | 94.1 | A (≥2)
17 | CCCCCCCCC(CCCCCCCC)COC(=O)CCCCCN(CCCCCC(=O)OCC(CCCCCCCC)CCCCCCCC)CCN(CCO)C1CC(c2ccccc2)C1 (stereo not shown) [Compound 76] | 0.096 | 54.94 | 91.71 | C (≥0.1 and <1)
18 | CCCCCCCCC(CCCCCCCC)COC(=O)CCCCCN(CCCCCC(=O)OCC(CCCCCCCC)CCCCCCCC)CCN(CCO)C1CCC(F)(F)CC1 [Compound 78] | 0.091 | 44.47 | 92.4 | C (≥0.1 and <1)
19 | CCCCCCCCC(CCCCCC)COC(=O)CCCCCN(CCCCCC(=O)OCC(CCCCCC)CCCCCCCC)CCN(CCO)C1CCN(C)CC1 (stereo not shown) [Compound 94] | 0.298 | 67.01 | 100.3 | D (<0.1)
20 | CCCCCCCCC(CCCCCC)COC(=O)CCCCCN(CCCCCC(=O)OCC(CCCCCC)CCCCCCCC)CCN1CCC(O)C1 (stereo not shown) [Compound 95] | 0.285 | 82.43 | 97.2 | D (<0.1)
21 | CCCCCCCCC(CCCCCC)COC(=O)CCCCCN(CCCCCC(=O)OCC(CCCCCC)CCCCCCCC)CCN1CCC(O)CC1 (stereo not shown) [Compound 96] | 0.101 | 85.98 | 96.9 | D (<0.1)
22 | CCCCCCCCC(CCCCCC)COC(=O)CCCCCN(CCCCCC(=O)OCC(CCCCCC)CCCCCCCC)CCN1CC(O)C1 (stereo not shown) [Compound 97] | 0.204 | 66.69 | 96.8 | D (<0.1)
23 | CCCCCCCCC(CCCCCC)COC(=O)CCCCCN(CCCCCC(=O)OCC(CCCCCC)CCCCCCCC)C1CCN(CCO)CC1 (stereo not shown) [Compound 98] | 0.105 | 86.23 | 97.6 | D (<0.1)
24 | CCCCCCCCC(CCCCCC)COC(=O)CCCCCN(CCCCCC(=O)OCC(CCCCCC)CCCCCCCC)CCN(C1CCCCC1)C1CCC(O)CC1 (stereo not shown) [Compound 99] | 0.1 | 66.06 | 100.2 | C (≥0.1 and <1)
25 | CCCCCCCCC(CCCCCCCC)COC(=O)COCCOCCN(CCOCCOCC(=O)OCC(CCCCCCCC)CCCCCCCC)CCN(CCO)C1CCC1 [Compound 103] | 0.054 | 67.57 | 94.41 | C (≥0.1 and <1)
